According to US20080312129A1, “Use of Mas G-Protein-Coupled Receptor Agonists and Antagonists, as Apoptotic-Activity Modulators for Study, Prevention and Treatment of Diseases” (priority 2005, published 2008):

What was measured:
[1] = system: CHO cells transfected with the Mas receptor (CHO-Mas); test: Western blot, phosphorylation of kinase B (Akt) in CHO-Mas cells; assay type: cell-based; conditions: FIG. 10
Procedure: (§1) CHO cells transfected with the Mas receptor (CHO-Mas) and human endothelial cells of the thoracic aorta (HAEC) were cultured until confluence of approximately 80% and processed with a lise buffer for Western blotting. After the processing, the protein concentration was determined and the lisates were subjected to electrophoresis in polyacrylamide/SDS gel and then subjected to transfer to the nitrocellulose membrane. The membranes were incubated with specific antibodies (anti-phospho-Akt, anti-Akt, anti-phospho-eNOS and anti-β-actin). The bands were viewed after development by chemoluminescence.

[2] = system: CHO cells transfected with the Mas receptor (CHO-Mas); test: Western blot, phosphorylation of eNOS stimulatory site (S1177) in CHO-Mas cells; assay type: cell-based; conditions: FIG. 11
Procedure: as §1

[3] = system: human endothelial cells of the thoracic aorta (HAEC); test: Western blot, phosphorylation of kinase B (Akt) in HAEC; assay type: cell-based; conditions: FIG. 12
Procedure: as §1

[4] = system: human endothelial cells of the thoracic aorta (HAEC); test: Western blot, phosphorylation of eNOS stimulatory site (S1177) in HAEC; assay type: cell-based; conditions: FIG. 13
Procedure: as §1

awake Wistar rats = test: Vasodilating action of acetylcholine (blood pressure) in awake rats; assay type: in vivo, rat; conditions: endovenous infusion 7.0 pmol/min, n=9, FIG. 14B
Procedure: Wistar rats were subjected, 24 hours before the experiments, to surgical implantation of catheters into the femoral artery (for analysis of blood pressure and heart rate), femoral vein (for injection and infusion of drugs) and left carotid artery (for injection of drugs). The records of blood pressure and heart rate were obtained through a data acquisition system connected to a microcomputer (BIOPAC System, INc.). […] In none of the groups did we observe any alterations in the baroreflex.

[5] = system: human aorta endothelial cells (HAEC); test: Western blot, phosphorylation of c-SRC stimulated by Ang II in HAEC; assay type: cell-based; conditions: FIG. 15, 4 experiments, b15 words it as inhibiting c-SRC
Procedure: (§2) In order to quantify the activity of the NAD(P)H Oxtidase, human aorta endothelial cells (HAEC) were stimulated with angiotensin II (10^−7M) for 10 minutes. In some experiments, the cells were pre-exposed to the AT1 receptor antagonist Ibesartan (10^−5M), for 30 minutes or to Ang-(1-7) (10^−7 M) for 15 minutes. The chemoluminescence derived from lucigenin was used to determine the activity of NAD(P)H oxidase in the homogenate of the cells. In order to quantify the modulation of Ang-(1-7) in the phosphorylation of c-SRC, the HAECs were cultured until confluence of about 80% was reached and processed with lise buffer for Western blotting. After the processing, the protein concentration was determined and the lisates were subjected to gel electroforesis of polyacrylamide/SDS and then to the transfer to nitrocellulose membrane. The membranes were incubated with specific antibodies (anti-phospho-c-SRC, anti-c-SRC). The bands were visualized after development by chemoluminescency. […] In some experiments the cells were pre-incubated with Ibesartan (10^−5 M, 30 min). Data are presented with an average±EPM of 4 experiments. *p<0.05 vs control.+p<0.05 vs Ang II+Ang (1-7).

NAD(P)H oxidase = NAD(P)H oxidase activity in HAEC homogenate, lucigenin chemoluminescence; assay type: cell-based, human; conditions: HAEC stimulated by Ang II 10^-7 M 10 min; Ang-(1-7) 10^-7 M 15 min pre-incubation; FIG. 16; direction stated only
Procedure: as §2

C57 mice = test: Testis histology (apoptosis) and gonadosomatic index after 14-day osmotic mini-pump infusion; assay type: in vivo, mouse; conditions: 2.5 μg/h s.c. mini-pump, 14 days, n=5, FIG. 17
Procedure: Osmotic mini-pumps (ALZET, model 2002) containing the Mas G-protein-coupled receptor antagonist, A-779 (2.5 μg/h, 14 days, n=5) or carrier (NaCl 0.9%, 1 μl/h, 14 days, n=6) were implanted subscutaneously into the dorsal region of C57 mice under anesthesia with tribromoethanol (2.5%, 1 ml/100 g of body weight). After this period, the animals were weigh and then injected, by intraperitoneal route, with heparin at the concentration of 125 Ul/kg of body weight. After fifteen minutes, these animals were sedated with sodium thiopental (50 mg/kg of body weight) and perfused through the left ventricle. In a first step, it was carried out the washing of the vascular bed with a 0.9% saline solution, under a pressure of approximately 80 mmHg, for about 5 minutes, at room temperature. Immediately after this procedure, the animals were perfused with a 4% glutaraldehyde fixing solution in a phosphate buffer (0.05M, pH 7.2-7-4) for about 25 minutes. After this step, the testicles were removed and separated from the respective epididymis and weighed. From the testicular and body weights, one estimated the gonadosomatic index (percentage relation between the testicular weight and the body weight) for each animal. For the microscopic analyses, fragments of the testis up to about 3 mm thick were collected, which were dipped into glutaraldehyde buffered at 4% for two to four hours, at 4° C. […]

activity of NAD(P)H oxidase (NAD(P)H oxidase) | Substance | phosphorylation of kinase B (Akt) [1] | phosphorylation of the stimulatory site of endothelial nitric oxide synthase (S1177) [2] | phosphorylation of kinase B (Akt) [3] | phosphorylation of the stimulatory site of eNOS (S1177) [4] | effect on the vasodilating action of acetylcholine (ACh) (awake Wistar rats) | effect on phosphorylation of c-SRC stimulated by Ang II [5] | effect on Ang-(1-7)-stimulated phosphorylation of kinase B (Akt) [1] | effect on Ang-(1-7)-stimulated phosphorylation of kinase B (Akt) [3] | gonadosomatic index (testicular weight / body weight, percentage) versus control group (C57 mice) | number of apoptosis per transverse section of testis versus control group (C57 mice)
inhibits the activity of NAD(P)H oxidase | Angiotensin-(1-7) [Ang-(1-7)] | stimulation | stimulated | stimulatory effect | stimulated | potentiates the vasodilating action of acetylcholine | modulating effect |  |  |  | 
 | Asp^1-Arg^2-Val^3-Tir^4-Lle^5-His^6-D-Ala^7 [A-779, reference compound] |  |  |  |  |  |  | blocked this effect | blocked this effect | there was not different | larger number of apoptosis per transverse section
